#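 Dose response: 5 concentrations. Exposure: 48 h. Format: 96-well plates. Endpoint: linear interpolation; highest concentration if not reached. At the GI50, growth is halved. TGI: concentration producing complete growth inhibition.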
# Experiments:
# Test in all cases: inhibition of tumour cell growth, NCI panel, 48 h
# SN12C renal = tested on: SN12C renal
# PC-3 prostate = tested on: PC-3 prostate
# HCC-2998 colon = tested on: HCC-2998 colon
# SF-295 CNS = tested on: SF-295 CNS
# OVCAR-8 ovarian = tested on: OVCAR-8 ovarian
# T-47D breast = tested on: T-47D breast
# SNB-75 CNS = tested on: SNB-75 CNS
# MDA-MB-435 = tested on: MDA-MB-435
# SK-MEL-28 melanoma = tested on: SK-MEL-28 melanoma
# RPMI-8226 leukemia = tested on: RPMI-8226 leukemia
# HOP-92 NSCLC = tested on: HOP-92 NSCLC
# MDA-MB-231 breast = tested on: MDA-MB-231 breast
# SF-268 CNS = tested on: SF-268 CNS
# CCRF-CEM leukemia = tested on: CCRF-CEM leukemia
# BT-549 breast = tested on: BT-549 breast
# OVCAR-5 ovarian = tested on: OVCAR-5 ovarian
# LOX IMVI melanoma = tested on: LOX IMVI melanoma
# SK-MEL-2 melanoma = tested on: SK-MEL-2 melanoma
# OVCAR-3 ovarian = tested on: OVCAR-3 ovarian
# A549 NSCLC = tested on: A549 NSCLC
# UO-31 renal = tested on: UO-31 renal
# SNB-19 CNS = tested on: SNB-19 CNS
# NCI-H460 lung = tested on: NCI-H460 lung
# MOLT-4 leukemia = tested on: MOLT-4 leukemia
# 786-0 renal = tested on: 786-0 renal
# HL-60(TB) leukemia = tested on: HL-60(TB) leukemia
# MCF7 breast = tested on: MCF7 breast
# SF-539 CNS = tested on: SF-539 CNS
# NCI/ADR-RES ovarian = tested on: NCI/ADR-RES ovarian
# CAKI-1 renal = tested on: CAKI-1 renal
# SR leukemia = tested on: SR leukemia
# NCI-H226 lung = tested on: NCI-H226 lung
# MALME-3M melanoma = tested on: MALME-3M melanoma
# NCI-H522 lung = tested on: NCI-H522 lung
# OVCAR-4 ovarian = tested on: OVCAR-4 ovarian
# SW-620 colon = tested on: SW-620 colon
# HOP-62 NSCLC = tested on: HOP-62 NSCLC
# U251 CNS = tested on: U251 CNS
# SK-MEL-5 melanoma = tested on: SK-MEL-5 melanoma
# IGROV1 ovarian = tested on: IGROV1 ovarian
# HS 578T breast = tested on: HS 578T breast
# TK-10 renal = tested on: TK-10 renal
# NCI-H23 lung = tested on: NCI-H23 lung
# UACC-257 melanoma = tested on: UACC-257 melanoma
# UACC-62 melanoma = tested on: UACC-62 melanoma
# MDA-N = tested on: MDA-N
# COLO 205 colon = tested on: COLO 205 colon
# ACHN renal = tested on: ACHN renal
# M14 melanoma = tested on: M14 melanoma
# HT29 colon = tested on: HT29 colon
# DU-145 prostate = tested on: DU-145 prostate
# SK-OV-3 ovarian = tested on: SK-OV-3 ovarian
# KM12 colon = tested on: KM12 colon
# HCT-15 colon = tested on: HCT-15 colon
# HCT-116 colon = tested on: HCT-116 colon
# K-562 leukemia = tested on: K-562 leukemia
# EKVX NSCLC = tested on: EKVX NSCLC
compound,measurement,setting,value
COC(=O)CCc1ccc2c(c1)CCC2,TGI,SN12C renal,> 100 µM
same,TGI,PC-3 prostate,> 100 µM
same,TGI,HCC-2998 colon,> 100 µM
same,TGI,SF-295 CNS,> 100 µM
same,TGI,OVCAR-8 ovarian,> 100 µM
same,TGI,T-47D breast,> 100 µM
same,TGI,SNB-75 CNS,> 100 µM
same,TGI,MDA-MB-435,> 100 µM
same,TGI,SK-MEL-28 melanoma,> 100 µM
same,TGI,RPMI-8226 leukemia,> 100 µM
same,TGI,HOP-92 NSCLC,> 100 µM
same,TGI,MDA-MB-231 breast,> 100 µM
same,TGI,SF-268 CNS,> 100 µM
same,TGI,CCRF-CEM leukemia,> 100 µM
same,TGI,BT-549 breast,> 100 µM
same,TGI,OVCAR-5 ovarian,> 100 µM
same,TGI,LOX IMVI melanoma,> 100 µM
same,TGI,SK-MEL-2 melanoma,> 100 µM
same,TGI,OVCAR-3 ovarian,> 100 µM
same,TGI,A549 NSCLC,> 100 µM
same,TGI,UO-31 renal,> 100 µM
same,TGI,SNB-19 CNS,> 100 µM
same,TGI,NCI-H460 lung,> 100 µM
same,TGI,MOLT-4 leukemia,> 100 µM
same,TGI,786-0 renal,> 100 µM
same,TGI,HL-60(TB) leukemia,> 100 µM
same,TGI,MCF7 breast,> 100 µM
same,TGI,SF-539 CNS,> 100 µM
same,TGI,NCI/ADR-RES ovarian,> 100 µM
same,TGI,CAKI-1 renal,> 100 µM
same,TGI,SR leukemia,> 100 µM
same,TGI,NCI-H226 lung,> 100 µM
same,TGI,MALME-3M melanoma,> 100 µM
same,TGI,NCI-H522 lung,> 100 µM
same,TGI,OVCAR-4 ovarian,> 100 µM
same,TGI,SW-620 colon,> 100 µM
same,TGI,HOP-62 NSCLC,> 100 µM
same,TGI,U251 CNS,> 100 µM
same,TGI,SK-MEL-5 melanoma,> 100 µM
same,TGI,IGROV1 ovarian,> 100 µM
same,TGI,HS 578T breast,> 100 µM
same,TGI,TK-10 renal,> 100 µM
same,TGI,NCI-H23 lung,> 100 µM
same,TGI,UACC-257 melanoma,> 100 µM
same,TGI,UACC-62 melanoma,> 100 µM
same,TGI,MDA-N,> 100 µM
same,TGI,COLO 205 colon,> 100 µM
same,TGI,ACHN renal,> 100 µM
same,TGI,M14 melanoma,> 100 µM
same,TGI,HT29 colon,> 100 µM
same,TGI,DU-145 prostate,> 100 µM
same,TGI,SK-OV-3 ovarian,> 100 µM
same,TGI,KM12 colon,> 100 µM
same,TGI,HCT-15 colon,> 100 µM
same,TGI,HCT-116 colon,> 100 µM
CC(=O)O[C@H]1CC[C@H]2[C@@H]3CCc4cc(O)c(I)cc4[C@H]3CC[C@]12C,GI50,SN12C renal,18 µM
same,TGI,SN12C renal,37.2 µM
same,TGI,PC-3 prostate,20 µM
same,TGI,HCC-2998 colon,32.2 µM
same,TGI,SF-295 CNS,28.6 µM
same,TGI,OVCAR-8 ovarian,37.9 µM
same,TGI,T-47D breast,31.7 µM
same,TGI,SNB-75 CNS,26.2 µM
same,GI50,MDA-MB-435,13.1 µM
same,TGI,MDA-MB-435,26.6 µM
same,TGI,SK-MEL-28 melanoma,29.6 µM
same,TGI,RPMI-8226 leukemia,41.9 µM
same,TGI,MDA-MB-231 breast,12.3 µM
same,TGI,K-562 leukemia,> 100 µM
same,TGI,SF-268 CNS,28.4 µM
same,TGI,BT-549 breast,29.4 µM
same,TGI,OVCAR-5 ovarian,32.2 µM
same,TGI,LOX IMVI melanoma,30.2 µM
same,TGI,SK-MEL-2 melanoma,37.3 µM
same,TGI,OVCAR-3 ovarian,31.4 µM
same,TGI,A549 NSCLC,29.5 µM
same,TGI,UO-31 renal,27.1 µM
same,TGI,SNB-19 CNS,32.3 µM
same,TGI,NCI-H460 lung,26.9 µM
same,TGI,MOLT-4 leukemia,61.6 µM
same,TGI,786-0 renal,27.1 µM
same,TGI,HL-60(TB) leukemia,80.9 µM
same,TGI,MCF7 breast,33.8 µM
same,TGI,SF-539 CNS,29.7 µM
same,TGI,NCI/ADR-RES ovarian,43.2 µM
same,TGI,CAKI-1 renal,29.7 µM
same,TGI,SR leukemia,> 100 µM
same,TGI,NCI-H226 lung,30.7 µM
same,TGI,MALME-3M melanoma,37 µM
same,TGI,NCI-H522 lung,25.2 µM
same,TGI,OVCAR-4 ovarian,28 µM
same,TGI,SW-620 colon,27.7 µM
same,GI50,HOP-62 NSCLC,11 µM
same,TGI,HOP-62 NSCLC,24 µM
same,TGI,U251 CNS,27.8 µM
same,TGI,SK-MEL-5 melanoma,17.2 µM
same,TGI,IGROV1 ovarian,30.5 µM
same,TGI,HS 578T breast,31.9 µM
same,TGI,TK-10 renal,33.6 µM
same,TGI,NCI-H23 lung,27.4 µM
same,TGI,UACC-257 melanoma,30 µM
same,GI50,UACC-62 melanoma,12 µM
same,TGI,UACC-62 melanoma,24.4 µM
same,TGI,MDA-N,31.3 µM
same,TGI,COLO 205 colon,33.6 µM
same,TGI,ACHN renal,28.1 µM
same,TGI,M14 melanoma,27.3 µM
same,TGI,HT29 colon,33.2 µM
same,TGI,DU-145 prostate,28.7 µM
same,TGI,SK-OV-3 ovarian,29.1 µM
same,TGI,KM12 colon,28.3 µM
same,TGI,HCT-15 colon,22.9 µM
same,GI50,HCT-116 colon,16 µM
same,TGI,HCT-116 colon,29.9 µM
same,TGI,EKVX NSCLC,26.8 µM

# Source: PubChem BioAssay (NCI)
